Here are results for two compounds from patent publication US9211305B2, “Pharmaceutical compositions with glycosaminoglycans and use thereof in the treatment of chronic ulcers” (LABORATORIOS FARMACEUTICOS ROVI S.A., priority 2008, dated 2015).

Values joined by “and” are separate entries in the source; they are usually repeats but may differ in a detail not shown here. Identical values can stand only once. Marks after values point to notes of the source that are not given here.

The test system of one assay is diabetic wistar rat. Kind of assay: Example 2: ulcer area reduction in streptozocin-diabetized rats, subcutaneous route. In kind it is in vivo. Particulars: for percentage of area reduction of day 9 with respect to day 1: single ulcers. How it is done: To perform the present embodiment, doses of 45 mg/kg of streptozocin (STZ) were administered by intramuscular route to make a batch of 8 rats diabetic (Andrades Ja et al. Engineering, expression, and renaturation of a collagen-targeted human bFGF fusion protein. Growth Factors. 2001; 18(4):261-75).
Male wistar rats with a average weight of 250 g per rat were used, to which a dose of 11.25 mg STZ per rat was administered by means of the intramuscular administration of 100 μL in the left paw of each rat.
Sweetened water (350 mg/dL) was administered to all the rats for three days and glucose measurements were performed with a glucometer every day to verify that the rats were indeed diabetized. For this reason, before the administration and at time 4 days after the administration of streptozocin, a drop of blood was extracted from the rat tail vein for the subsequent quantification of glycemia and see whether they were diabetic before starting the ulceration assay.
Once the rats were diabetized, 2 ulcers with a diameter of 1 cm each were made on them using a scalpel. An anesthesia/analgesia protocol with ketamine/xylazine was followed according to the recommendations of the book: “Handbook of laboratory animal management and welfare”:
The ulcers were treated with water and cleaned for 9 days after the ulceration.
The administrations of bemiparin and of fondaparinux were performed by means of a bemiparin solution by subcutaneous route (100 μL) for the treatment of the ulcers.
The diameter of the ulcer was quantified by means of tracing the ulcer onto a transparency to see the progress of the healing.

The test system of a further assay is Non-Diabetized Rats. Description: Wound healing by oral route in non-diabetized rats. Particulars: for histopathological Grade / histopathological Score: sacrifice day 15, fondaparinux 10 mg/kg, bemiparin 100 mg/kg. In kind it is in vivo, Wistar rat. How it is done: (§1) Both treatments were administered by oral route at an administration volume of 10 mL/kg. In the case of fondaparinux, a dose of 10 mg/kg was administered and in the case of bemiparin, 100 mg/kg were administered.
(§2) The control group only received the carrier used to prepare the assay product. The carrier for the preparation of the assay product is a 1.5% (w/v) bicarbonate solution in water for injections. It was verified that the pH of the formulations prepared was above 8.00.
(§3) The animals were anesthetized (ketamine+xylazine, 90+10 mg/kg, i.m.). Their back was shaved and cleaned with disinfectant (povidone-iodine) and the area where the wound would be made was marked by means of a template to homogenize its position in all the animals.
(§4) The wound was made by means of a circular incision with a diameter of approximately 1.5 cm, the skin of the mid-dorsal area being removed. 1 mL/animal of physiological serum was administered by i.p. route after the intervention. […]. Analgesia (paracetamol, 1 mg/mL) was provided in drinking water for the 7 days after the intervention.
(§5) On the day after making the wound and for a total of 14 days, the assigned treatments were administered to the animals. The follow-up of the animals was performed, the evolution of the wounds being macroscopically assessed twice a week, by means of digital photography of the wound. The body weight of the animals was also recorded twice a week.
(§6) On the day after the last administration, the animals were sacrificed with anesthesia overdose (pentobarbital sodium). The area where the wound was made was extracted. The front half was frozen in liquid nitrogen and stored in a freezer (−80±5° C.) and the rear half was stored in formol for its subsequent histological processing.
(§7) The wound area was calculated as the percentage of reduction thereof to evaluate the degree of curing thereof, by means of the standardized formula: […]
On the following day and for a total of 14 days, 10 mg/kg were administered to the animals by oral route.
(§8) The follow-up of the animals was performed, the evolution of the wounds being macroscopically assessed twice a week, by means of digital photography of the wound. The body weight of the animals was also recorded twice a week.
(§9) The animals were sacrificed on day 15 of the study and the area of the skin where the wound was caused was stored in formol to perform a histopathological evaluation (hematoxylin-eosin staining).
Each section was given a histological score was given in the grade I to grade V range, where I means uncured wound and V means completely epithelialized wound. The score is based on the degree of cell invasion, the formation of granulation tissue, vascularization and epithelialization.

The next assay deals with diabetic rat wound model. Description: Wound healing by oral route in diabetic rat. Conditions: 14 days; for histopathological Grade / histopathological Score: oral, sacrifice day 15, fondaparinux 10 mg/kg, bemiparin 100 mg/kg. Format: in vivo, Wistar rat. On the procedure: as §1, §2
At the beginning of the assay, diabetes mellitus was induced in all the animals. To that end, they received a single intraperitoneal injection of streptozotocin (60 mg/kg, 10 mL/kg). After 72 hours, the establishment of the diabetes was verified by analyzing the blood glucose levels. To that end, animals were anesthetized with isoflurane and 0.8 mL of blood were extracted from the retroorbicular plexus. The animals had to have values of glucose greater than 15 mmol/L. A week after the induction of the diabetes, the wound was made.
as §3, §4, §5, §6, §7
On the following day and for a total of 14 days, 10 mL/kg were administered to the animals by oral route.
as §8, §9
Each section was given a histological score in the grade I to grade V range, where I means uncured wound and V means completely epithelialized wound. The score is based on the degree of cell invasion, the formation of granulation tissue, […]

Assay [1] has as its system C57BL/KsJ-db/db diabetic mouse. Kind of assay: Example 4: wound healing in genetically diabetic mouse, subcutaneous route. Format: in vivo. Conditions: for histopathological Grade / histopathological Score: sacrifice day 21, doses as in the 18th table. How it is done:
The genetically diabetic mouse develops resistance to insulin and hyperglycemia similar to those observed in adult diabetes. The total thickness wounds made in the back of these animals takes longer in forming the granulation tissue and in closing than the same wounds caused in non-diabetic animals.
On the first day of the assay, the animals were anesthetized (ketamine+xylazine, 100+10 mg/kg, i.m.). The back of the animal was shaved, the area was cleaned with disinfectant and the location of the wound was marked by means of a template to make its position the same in all the animals.
The wound was made by means of a circular incision with a diameter of approximately 1.5 cm, the skin of the mid-dorsal area being removed. A semipermeable dressing was subsequently placed on the wound. 1 mL/animal of physiological serum was administered by i.p. route after the intervention.
as §7
The measurement performed immediately after the intervention or incision was used as the baseline area. On the following day and for a total of 14 days, the assigned treatments were administered to the animals.
On the following day and for a total of 14 days, 10 mL/kg were administered to the animals by subcutaneous route in the back of the animal, avoiding the area of the wound.
The follow-up of the animals was performed up to a period of 21 days (average time necessary for the healing of the wounds in this animal model). The assessment was performed by means of digital photography of the wound and subsequent image analysis.
The animals were sacrificed on day 21 of the study and the area of the skin where the wound was caused was stored in formol to perform a histopathological evaluation (hematoxylin-eosin staining).
Each section was given a histological score in the grade 1 to grade V range, where I means uncured wound and V means completely epithelialized wound. The score is based on the degree of cell invasion, the formation of granulation tissue, vascularization and epithelialization.

Setting [2] is: Fondaparinux rats, Batch 3, 0.22 mg per rat, subcutaneous.
The mark [3] stands for this setting: day 21, subcutaneous 14 days, fondaparinux 1 mg/kg, bemiparin 1000 IU Xa/kg.
Where [4] appears, read: 108 IU rats, Batch 2, subcutaneous.
Setting [5] is: 217 IU rats, Batch 1, subcutaneous.

In the case of `CO[C@H]1O[C@H](COS(=O)(=O)O)[C@@H](O[C@@H]2O[C@@H](C(=O)O)[C@@H](O[C@H]3O[C@H](COS(=O)(=O)O)[C@@H](O[C@@H]4O[C@H](C(=O)O)[C@@H](O[C@H]5O[C@H](COS(=O)(=O)O)[C@@H](O)[C@H](O)[C@H]5NS(=O)(=O)O)[C@H](O)[C@H]4O)[C@H](OS(=O)(=O)O)[C@H]3NS(=O)(=O)O)[C@H](O)[C@H]2OS(=O)(=O)O)[C@H](O)[C@H]1NS(=O)(=O)O` [Fondaparinux], in the assay with diabetic wistar rat (setting [2]), the “percentage of area reduction of day 9 with respect to day 1, Average” value is reported as 20.70%; the “percentage of area reduction of day 9 with respect to day 1” value was 17.00%* and 20.69% and 21.32% and 23.81%. Also, in the assay on Non-Diabetized Rats (oral, 14 days), the “histopathological Grade” value is “III (7-9 Moderately thick granulation tissue. It can vary from being dominated by inflammatory cells to greater presence of fibroblasts and collagen deposition, extensive neovascularization, minimum to moderate epithelial migration.)”; the “histopathological Score” value was 9.5. In addition, in the assay on diabetic rat wound model, the “histopathological Grade” value was “III (7-9 Moderately thick granulation tissue. It can vary from being dominated by inflammatory cells to greater presence of fibroblasts and collagen deposition, extensive neovascularization, minimum to moderate epithelial migration.)”; the “histopathological Score” value turned out to be 9.5. Moreover, in assay [1] (setting [3]), the “percentage of healing of the wound” value was 96%. In assay [1] (subcutaneous 14 days), the “histopathological Grade” value was “III (7-9 Moderately thick granulation tissue. It can vary from being dominated by inflammatory cells to greater presence of fibroblasts and collagen deposition, extensive neovascularization, minimum to moderate epithelial migration.)”; the “histopathological Score” value is given as 7.2.

For Bemiparin, the “percentage of area reduction of day 9 with respect to day 1, Average” value in the assay on diabetic wistar rat (setting [4]) is recorded as 24.39 ± 7.47%; in the assay with diabetic wistar rat (setting [5]), 27.35 ± 7.25%. The macroscopic healing process result in the assay on diabetic wistar rat (day 9 with respect to day 0, bemiparin 217 IU) was “macroscopically much better than in the case of fondaparinux”. The “percentage of area reduction of day 9 with respect to day 1” value in the assay with diabetic wistar rat (setting [4]) was 16.96% and 13.26% and 19.14% and 19.71%; in the assay on diabetic wistar rat (setting [5]), 29.31% and 31.85% and 28.40% and 24.89%. In addition, the “reduction of the ulceration area” value with Non-Diabetized Rats (oral 100 mg/kg, 14 days) is “more or less to the same extent as the control animals”. Also, the “histopathological Grade” value in the assay on Non-Diabetized Rats (oral, 14 days) was “III (7-9 Moderately thick granulation tissue. It can vary from being dominated by inflammatory cells to greater presence of fibroblasts and collagen deposition, extensive neovascularization, minimum to moderate epithelial migration.)”; in the assay on diabetic rat wound model, “IV (10-12 Thick and vascular granulation tissue dominated by fibroblasts and extensive collagen deposition, the epithelium covers the wound partially or completely.)”; in assay [1] (subcutaneous 14 days), “IV (10-12 Thick and vascular granulation tissue dominated by fibroblasts and extensive collagen deposition, the epithelium covers the wound partially or completely.)”. In addition, the “histopathological Score” value with Non-Diabetized Rats (oral, 14 days) amounted to 9.0; in the assay with diabetic rat wound model it was 11.3; in assay [1] (subcutaneous 14 days), 11.5. Also, in the assay with Non-Diabetized Rats (oral, compared with fondaparinux), the scab formation result is reported as “much more pronounced scab process”. In addition, the “evolution of the wound area (FIG. 11)” value in the assay with diabetic rat wound model (oral 100 mg/kg) is “heal much better than those treated with fondaparinux”. In addition, the “percentage of healing of the wound” value in assay [1] (setting [3]) is “complete curing”; in assay [1] (from day 18, subcutaneous 1000 IU Xa/kg) it was 98%. Moreover, the “day on which the wound closes” value in assay [1] (subcutaneous 1000 IU Xa/kg) is 18 days. For the same compound, the “granulation tissue in the wound, macroscopic” value in assay [1] (subcutaneous, after the fifth day of treatment) is reported as “a bed covered with granulation tissue”.
